Source: patent publication US10570122B2, “Compounds with anti-tumoral activity” (AB Science, priority 2015, dated 2020)
“Also recorded” adds a separate entry of the source.

Key:
HL60 = assay: CellTiter-Blue cell-based survival/proliferation assay, HL60; settings: Homo sapiens, HL-60, Leukemia cell line HL60, 48 h, read-out: Anti-tumoral activity (measured IC50) HL60
Outline: (§1)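 Tenfold compound dilutions (0–10 μM) were added to 1·10^4 cells/well. Plates incubated 48 h at 37 °C. CellTiter-Blue reduction (4 h, 37 °C) was read as fluorescence at 590 nm, background-corrected with a cell-free blank.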

HUT78 = assay: CellTiter-Blue cell-based survival/proliferation assay, HUT78; settings: Homo sapiens, Lymphoma cell line HUT78, 48 h, read-out: Anti-tumoral activity (measured IC50) HUT78
Outline: as §1

KARPAS299 = assay: CellTiter-Blue cell-based survival/proliferation assay, KARPAS299; settings: Homo sapiens, KARPAS-299, Lymphoma cell line KARPAS299, 48 h, read-out: Anti-tumoral activity (measured IC50) KARPAS299
Outline: as §1

RL = assay: CellTiter-Blue cell-based survival/proliferation assay, RL; settings: Homo sapiens, Lymphoma cell line RL, 48 h, read-out: Anti-tumoral activity (measured IC50) RL
Method: Cell-Based Proliferation Screening of Compounds
CellTiter-Blue cell-based survival/proliferation assay (Promega G8080) was performed on tumor cell lines. A total of 1·10^4 cells/well/50 μl were seeded in a 96-wells plate. Treatment was initiated by addition of a 2× drug solution of 1/10 serial dilutions ranging from 0 to 10 μM. Cells were grown for 48 h at 37° C. and then incubated with 10 μl/well of Promega CellTiter-Bleue reagent for 4 h at 37° C. The amount of resorufin dye formed was quantified by its fluorescence emission at 590 nm using a scanning multiwell spectrophotometer (OPTIMA, BMG labtech, France). A blank well without cells was used as a background control for the spectrophotometer.

OPM2 = assay: CellTiter-Blue cell-based survival/proliferation assay, OPM2; settings: Homo sapiens, OPM-2, Myeloma cell line OPM2, 48 h, read-out: Anti-tumoral activity (measured IC50) OPM2
Outline: as §1

A498 = assay: CellTiter-Blue cell-based survival/proliferation assay, A498; settings: Homo sapiens; A498 kidney tumor cell line, 48 h
Outline: as §1

A549 = assay: CellTiter-Blue cell-based survival/proliferation assay, A549; settings: Homo sapiens; A549 lung tumor cell line, 48 h
Outline: as §1

ACHN = assay: CellTiter-Blue cell-based survival/proliferation assay, ACHN; settings: Homo sapiens; ACHN kidney tumor cell line, 48 h
Outline: as §1

AGS = assay: CellTiter-Blue cell-based survival/proliferation assay, AGS; settings: Homo sapiens; AGS stomach tumor cell line, 48 h
Outline: as §1

BT20 = assay: CellTiter-Blue cell-based survival/proliferation assay, BT20; settings: Homo sapiens, BT-20; BT20 breast tumor cell line, 48 h
Outline: as §1

BXPC3 = assay: CellTiter-Blue cell-based survival/proliferation assay, BXPC3; settings: Homo sapiens, BXPC-3; BXPC3 pancreas tumor cell line, 48 h
Outline: as §1

CALU6 = assay: CellTiter-Blue cell-based survival/proliferation assay, CALU6; settings: Homo sapiens, Calu-6; CALU6 lung tumor cell line, 48 h
Outline: as §1

CLS354 = assay: CellTiter-Blue cell-based survival/proliferation assay, CLS354; settings: Homo sapiens, CLS-354; CLS354_4 head & neck tumor cell line, 48 h
Outline: as §1

DLD1 = assay: CellTiter-Blue cell-based survival/proliferation assay, DLD1; settings: Homo sapiens, DLD-1; DLD_1 colorectal tumor cell line, 48 h
Outline: as §1

DU145 = assay: CellTiter-Blue cell-based survival/proliferation assay, DU145; settings: Homo sapiens, DU-145; DU145 prostate tumor cell line, 48 h
Outline: as §1

H1299 = assay: CellTiter-Blue cell-based survival/proliferation assay, H1299; settings: Homo sapiens, NCI-H1299; H1299 lung tumor cell line, 48 h
Outline: as §1

HCT116 = assay: CellTiter-Blue cell-based survival/proliferation assay, HCT116; settings: Homo sapiens, HCT-116; HCT116 colorectal tumor cell line, 48 h
Outline: as §1

HEP2 = assay: CellTiter-Blue cell-based survival/proliferation assay, HEP2; settings: Homo sapiens, HEp-2; HEP2 head & neck tumor cell line, 48 h
Outline: as §1

HEPG2 = assay: CellTiter-Blue cell-based survival/proliferation assay, HEPG2; settings: Homo sapiens; HEPG2 liver tumor cell line, 48 h
Outline: as §1

HGC27 = assay: CellTiter-Blue cell-based survival/proliferation assay, HGC27; settings: Homo sapiens, HGC-27; HGC27 stomach tumor cell line, 48 h
Outline: as §1

MDAMB231 = assay: CellTiter-Blue cell-based survival/proliferation assay, MDAMB231; settings: Homo sapiens, MDA-MB-231; MDAMB231 breast tumor cell line, 48 h
Outline: as §1

MESSA = assay: CellTiter-Blue cell-based survival/proliferation assay, MESSA; settings: Homo sapiens, MES-SA; MESSA ovary tumor cell line, 48 h
Outline: as §1

PANC1 = assay: CellTiter-Blue cell-based survival/proliferation assay, PANC1; settings: Homo sapiens, PANC-1; PANC_1 pancreas tumor cell line, 48 h
Outline: as §1

PC3 = assay: CellTiter-Blue cell-based survival/proliferation assay, PC3; settings: Homo sapiens, PC-3; PC3 prostate tumor cell line, 48 h
Outline: as §1

PLCPRF5 = assay: CellTiter-Blue cell-based survival/proliferation assay, PLCPRF5; settings: Homo sapiens, PLC-PRF-5; PLC_PRF5 liver tumor cell line, 48 h
Outline: as §1

SW579 = assay: CellTiter-Blue cell-based survival/proliferation assay, SW579; settings: Homo sapiens; SW579 head & neck tumor cell line, 48 h
Outline: as §1

TOV112D = assay: CellTiter-Blue cell-based survival/proliferation assay, TOV112D; settings: Homo sapiens; TOV112D ovary tumor cell line, 48 h
Outline: as §1

[1] = system: panel of about 34 human tumor cell lines; assay: Cell-based proliferation screening on panel of tumor cell lines; settings: solid tumor cell line, cell line unknown, 48 h, read-out: IC50, solid tumor cell line of column 6 (last section of Table 3)
Outline: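 CellTiter-Blue survival assay with 1·10^4 cells/well, each line treated 48 h at 37° C with 1/10 serial dilutions from 0 to 10 μM. Resorufin formed during a 4 h reagent incubation is read by fluorescence at 590 nm. A cell-free blank serves as background.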

REC1 = assay: CellTiter-Blue cell-based survival/proliferation assay, REC1; settings: Homo sapiens, Lymphoma cell line REC1, 48 h, read-out: Anti-tumoral activity (measured IC50) REC1
Outline: as §1

A375 = assay: CellTiter-Blue cell-based survival/proliferation assay, A375; settings: Homo sapiens, A-375; A375 melanoma cell line, 48 h
Outline: as §1

A4513 = assay: CellTiter-Blue cell-based survival/proliferation assay, A4513; settings: Homo sapiens; A4513 Ewing cell line, 48 h
Outline: as §1

MELWO = assay: CellTiter-Blue cell-based survival/proliferation assay, MELWO; settings: Homo sapiens; MEL_WO melanoma cell line, 48 h
Outline: as §1

U118 = assay: CellTiter-Blue cell-based survival/proliferation assay, U118; settings: Homo sapiens; U118 glioblastoma cell line, 48 h
Outline: as §1

U2OS = assay: CellTiter-Blue cell-based survival/proliferation assay, U2OS; settings: Homo sapiens; U2OS osteosarcoma cell line, 48 h
Outline: as §1

U87MG = assay: CellTiter-Blue cell-based survival/proliferation assay, U87MG; settings: Homo sapiens, U-87 MG; U87_MG glioblastoma cell line, 48 h
Outline: as §1

[2] = system: human kinases (456 kinases); assay: KINOMEscan in vitro kinase profiling; assay type: binding
Method: An in vitro kinase profiling was conducted in order to evidence the absence of protein kinase inhibition by the compounds of the invention.
DiscoveRx (Ambit Biosciences) has developed a high-throughput system (KINOMEscan™) for screening of compounds against large numbers of human kinases (456 kinases).
The compounds of the invention were screened at the concentration of 1 μM, and results for primary screen binding interactions were reported as percent control (% Ctrl), where lower numbers indicate stronger hits. DMSO is used as a negative control (100% Ctrl) while a high affinity compound is used as a positive control (0% Ctrl). % Ctrl is calculated as follow:
[formula] Selectivity Score or S-score is a quantitative measure of compound selectivity. It is calculated by dividing the number of kinases that compounds bind to by the total number of distinct kinases tested, excluding mutant variants. S(10)=(number of kinases with % Ctrl<10)/(number of kinases tested), S(1)=(number of kinases with % Ctrl<1)/(number of kinases tested).

SMILES | IC50 (HL60) | IC50 (HUT78) | IC50 (KARPAS299) | IC50 (OPM2) | IC50 (A498) | IC50 (A549) | IC50 (ACHN) | IC50 (AGS) | IC50 (BT20) | IC50 (BXPC3) | IC50 (CALU6) | IC50 (CLS354) | IC50 (DLD1) | IC50 (DU145) | IC50 (H1299) | IC50 (HCT116) | IC50 (HEP2) | IC50 (HEPG2) | IC50 (HGC27) | IC50 (MDAMB231) | other results
CCOCc1ccc(C)c(Nc2ncc(-c3ccc(-n4ccnc4)cc3)o2)c1 [Example 037, (5-Ethoxymethyl-2-methyl-phenyl)-[5-(4-imidazol-1-yl-phenyl)-oxazol-2-yl]-amine] | > 1000 nM | > 1000 nM | > 1000 nM | > 1000 nM | > 1000 nM | > 1000 nM | > 1000 nM | > 1000 nM | > 1000 nM | > 1000 nM | > 1000 nM | > 1000 nM | > 1000 nM | > 1000 nM | > 1000 nM | > 1000 nM | > 1000 nM | > 1000 nM | > 1000 nM | > 1000 nM | IC50 (RL): > 1000 nM; IC50 (MESSA): > 1000 nM; IC50 (PANC1): > 1000 nM; IC50 (PC3): > 1000 nM; IC50 (PLCPRF5): > 1000 nM; IC50 (SW579): > 1000 nM; IC50 (TOV112D): > 1000 nM; IC50 [1]: > 1000 nM
CCOCc1ccc(C)c(Nc2nc(-c3ccc(N4CCNC4=O)cc3)cs2)c1 [Example 003, 1-{4-[2-(5-Ethoxymethyl-(2-methyl-phenylamino))-thiazol-4-yl]-phenyl}-imidazolidin-2-one] | ≤ 100 nM | ≤ 100 nM | ≤ 100 nM | ≤ 100 nM | ≤ 100 nM | > 1000 nM | ≤ 100 nM | > 1000 nM | > 1000 nM | ≤ 100 nM | > 1000 nM | ≤ 100 nM | ≤ 100 nM | > 1000 nM | > 1000 nM | 500 to 1000 nM | > 1000 nM | > 1000 nM | > 1000 nM | ≤ 100 nM | IC50 (REC1): ≤ 100 nM; IC50 (A375): ≤ 100 nM; IC50 (A4513): ≤ 100 nM; IC50 (MELWO): ≤ 100 nM; IC50 (MESSA): 100 to 500 nM; IC50 (PANC1): > 1000 nM; IC50 (PC3): ≤ 100 nM; IC50 (PLCPRF5): > 1000 nM; IC50 (SW579): > 1000 nM; IC50 (TOV112D): ≤ 100 nM; IC50 (U118): > 1000 nM; IC50 (U2OS): > 1000 nM; IC50 (U87MG): > 1000 nM; Interaction with the 456 kinases tested ([2]; screened at 1 μM): do not efficiently interact; Number of hits/number of kinases, S1 ([2]; tested at 1 μM, S(1): kinases with % Ctrl<1): 1/456; S-score, S1 ([2]; tested at 1 μM, S(1)=(number of kinases with % Ctrl<1)/(number of kinases tested)): 0.002; Number of hits/number of kinases, S10 ([2]; tested at 1 μM, S(10): kinases with % Ctrl<10): 4/456; S-score, S10 ([2]; tested at 1 μM, S(10)=(number of kinases with % Ctrl<10)/(number of kinases tested)): 0.009; Kinase targets, S1 ([2]; tested at 1 μM, kinases with % Ctrl<1): PDGFRB; Kinase targets, S10 ([2]; tested at 1 μM, kinases with % Ctrl<10): KIT, KIT V559D,; also recorded: KIT L576P
